Common to all, as to experiment: DTP human tumour cell line panel, 48 h
For experiment [1], the system named is HCC-2998 colon.
For experiment [2], the system named is HT29 colon.
Experiment [3] has as its system M14 melanoma.
Experiment [4] relates to NCI/ADR-RES ovarian.
Experiment [5] deals with OVCAR-8 ovarian.
In experiment [6] the test system is SF-268 CNS.
Experiment [7] has as its system SF-295 CNS.
Experiment [8] deals with SK-MEL-2 melanoma.
Experiment [9] has as its system TK-10 renal.
Experiment [10] deals with EKVX NSCLC.

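Briefly, cells in 96-well plates were exposed to five compound concentrations for 48 h, and endpoints were estimated by linear interpolation. Abbreviation: GI50, concentration required for 50% inhibition of growth. TGI: total growth inhibition.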

Broadly, the GI50 is the concentration at which growth is held to half of that of the control. By TGI is commonly meant the concentration giving total growth inhibition. In the case of `CCCN(Cc1ccc(F)cc1)c1ccc(CO)c(Cl)c1`, the GI50 in [1] is 8.9 µM; in experiment [2], 4.78 µM; in [3], 14.3 µM; in experiment [4], 9.52 µM; in experiment [5] it was 11.5 µM; in [6], 16.1 µM. For the same compound, the GI50 in experiment [7] was 1.41 µM; in experiment [8], 2.99 µM; in experiment [9] it was 0.0777 µM. Further, the TGI in [1] worked out at 22.5 µM; in [2] it was 16.4 µM; in experiment [3] it was 32.9 µM; in [4], 22.9 µM; in [5], 25.8 µM; in [6], 32.1 µM. Moreover, the TGI was found to be 9.65 µM in experiment [7], 13.3 µM in experiment [8] and 0.357 µM in experiment [9].

Turning to `OCC1OC(n2ccc3c2ncn2ncnc32)C(O)C1O` (stereo unspecified), the GI50 was 3.09 µM in experiment [1]; 0.444 µM in experiment [2]; 5.65 µM in experiment [3]; 0.712 µM in experiment [4]; 0.392 µM in experiment [5]; 6.83 µM in experiment [6]. Besides, the GI50 in experiment [7] is 1.13 µM; in [8], 46.2 µM; in experiment [9], 3.81 µM. The TGI in [1] was above 100 µM; in experiment [2], above 100 µM; in experiment [3], above 100 µM; in experiment [4], 63.7 µM; in [5] it was 5.68 µM; in experiment [6], above 100 µM. Besides, the TGI in [7] is above 59.8 µM; in experiment [8] it was above 100 µM; in experiment [9] it was above 100 µM.

As for `O=S(=O)(c1ccc(NC(=S)NCc2cccnc2)cc1)N1CCCCC1`, the GI50 was above 100 µM in experiment [1]; 90.5 µM in [2]; 3.9 µM in [3]; 8.36 µM in experiment [4]; 0.0991 µM in [5]; 17.2 µM in experiment [6]. In addition, the GI50 in experiment [7] was 13 µM; in experiment [8], 16.6 µM; in [9] it was 47.5 µM. Further, the TGI in [1], in experiment [2], in experiment [3], in [4], in experiment [5] and in experiment [6] was above 100 µM each time. Also, the TGI in [7], in [8] and in [9] was above 100 µM each time.

`O=C1c2ccccc2C(=O)N1CC1(C(=O)O)NCCS1(=O)=O` (stereo unspecified): the TGI in experiment [10], in experiment [2], in experiment [3], in [4], in experiment [5] and in [6] was above 100 µM each time. Besides, the TGI in experiment [7], in experiment [8] and in experiment [9] was above 100 µM throughout.

For `O=C(O)CS(=O)(=O)C(c1ccccc1)c1ccccc1`, the TGI in [10], in experiment [2], in [3], in [4], in experiment [5] and in experiment [6] was above 100 µM throughout. For the same compound, the TGI in [7], in experiment [8] and in experiment [9] was above 100 µM throughout.

Regarding `COc1ccc(Cn2nc(-c3cc(OC)c(OC)c(OC)c3)c3c2CCc2cnoc2-3)cc1OC`, the GI50 is 5.85 µM in experiment [1]; 3.8 µM in experiment [2]; 4.08 µM in [3]; 3.02 µM in [4]; 19.6 µM in [5]; 5.41 µM in experiment [6]. The values for the GI50 in [8] and in experiment [9] were 6.06 µM and 10.1 µM, respectively. Moreover, the TGI is above 100 µM in experiment [1]; above 100 µM in experiment [2]; 47.4 µM in experiment [3]; 21.5 µM in experiment [4]; above 100 µM in [5]; above 100 µM in experiment [6]. For the same compound, the TGI in experiment [8] and in experiment [9] was above 100 µM each time.

Consider `COc1cccc(C2=C(c3cn(C)c4ccccc34)C(=O)NC2=O)c1`, for which the GI50 is above 22.1 µM in experiment [1]; 7.96 µM in experiment [2]; 18.9 µM in [3]; 8.43 µM in experiment [4]; 8.25 µM in [5]; 16.3 µM in experiment [6]. The GI50 in experiment [7] is 11 µM; in [8], 8.79 µM; in experiment [9], 13.3 µM. For the same compound, the TGI in experiment [1], in experiment [2], in [3], in experiment [4], in experiment [5] and in [6] was above 25 µM throughout. Besides, the TGI in [7], in experiment [8] and in experiment [9] was above 25 µM each time.
